According to ChEMBL document CHEMBL1124518, “Nonsteroidal cardiotonics. 2. The inotropic activity of linear, tricyclic 5-6-5 fused heterocycles” (1989):

Columns and labels:
Felis catus [1] = test: Maximum increase in dP/dt when administered intravenously in cats at 0.3 mg/kg dose.; assay type: functional; settings: route intravenous
Rattus norvegicus [2] = species on record: Rattus norvegicus; test: Effective dose required to produce an increase in dP/dt5 by 1500 mmHg/s in rats; assay type: functional
Rattus norvegicus [3] = test: Maximum increase in dP/dt when administered intravenously in rats at 10 mg/kg dose.; assay type: functional; design: unit not given here; settings: route intravenous
Felis catus [4] = species on record: Felis catus; test: Effective dose required to produce an increase in dP/dt5 by 1500 mmHg/s in cats; assay type: functional
Canis familiaris [5] = test: Time after which maximum increase in contractility was observed when administered orally in conscious dogs at 1 mg/kg; assay type: functional, Canis lupus familiaris; settings: route oral
Canis familiaris [6] = test: Maximum increase in dP/dt60 when administered orally in dogs at dose 0.3 mg/kg; assay type: functional, Canis lupus familiaris; settings: route oral
Canis familiaris [7] = test: Amount of time during which increase in administered orally in conscious dogs at 0.3 mg/kg; assay type: functional, Canis lupus familiaris; settings: route oral

SMILES	Max (Felis catus [1])	ED1.5 (Rattus norvegicus [2])	Max (Rattus norvegicus [3])	ED1.5 (Felis catus [4])	Time (Canis familiaris [5])	Max (Canis familiaris [6])	Duration (Canis familiaris [7])
CC1(C)C(=O)Nc2cc3[nH]c(-c4cnccn4)nc3cc21	2.7 mHg/s	0.1 mg/kg	2.6	0.04 mg/kg	–	–	–
CC1(C)C(=O)Nc2ccc(C3=NNC(=O)CC3)cc21 [INDOLIDAN]	–	–	–	–	45 min	2.8 mmHg s-1	> 6 h
